Test results from publication PMC5904360, “Soluble N-Ethylmaleimide-Sensitive Factor Attachment Protein Receptor-Derived Peptides for Regulation of Mast Cell Degranulation” (Frontiers in Immunology, 2018).

How the values were obtained:
RBL-2H3 mast cells = assay: Degranulation assay, histamine release (enzyme immunoassay); format: cell-based, rat; settings: for inhibition of histamine release: PTD-conjugated peptide without SLO (LY294002 as positive control), DNP-IgE sensitized, DNP-BSA stimulation, no A23187 pretreatment, three independent experiments (Figure 2C); for inhibition of histamine release after A23187 pretreatment: cells pretreated with A23187, sensitized with DNP-IgE, then PTD-conjugated peptide (Figure 4B)
[1] = biological target: T1, SN23-Syn4-Vp2 SNARE complex (Rattus norvegicus, UniProt O70377+P63045+Q08850); assay: SNARE-driven membrane fusion (total lipid mixing) assay with proteoliposomes; format: biochemical; settings: for inhibition of membrane fusion (lipid mixing): inhibitor applied to T-vesicles, T:V 9:1, 37°C, NBD dequenching, Vp2S/Vp8S at 10 µM, three independent experiments (Figure 3B-D); for inhibition of membrane fusion, peptide added after preincubation: peptide added after preincubation of T- and V-liposomes at 4°C overnight (partially zippered SNAREs) (Figure 4A); for inhibition of membrane fusion, peptide added before preincubation: peptide added before preincubation of T- and V-liposomes at 4°C overnight (Figure 4A)
T1 construct: Syn4 (amino acids 1–298); SNAP-23 (amino acids 1–210); full-length VAMP2 (VpF, amino acids 1–116); GST (N, cleaved yes); made in house; host or cells: Escherichia coli Rosetta(DE3)pLysS
Source text: Total RNA was obtained from RBL-2H3 cells using TRIzol® Reagent (#15596026, Invitrogen, Carlsbad, CA, USA) and served as a template for cDNA synthesis with M-MLV reverse transcriptase (M1705, Promega, Madison, WI, USA) according to the manufacturer’s protocol. The cDNAs amplified for rat Syn4, SNAP-23, VAMP2, VAMP4, VAMP7, and VAMP8 using each primer pair ([4]), were cloned into the pGEX-4T 1 vector. The mast cell SNARE proteins [Syn4 (amino acids 1–298), SNAP-23 (amino acids 1–210), full-length VAMP2 (VpF, amino acids 1–116), VAMP4 (amino acids 1–141), and VAMP8 (amino acids 1–100)] were expressed in Escherichia coli Rosetta(DE3)pLysS (#70956, Novagen, Darmstadt, Germany) and purified as glutathione-S-transferase-tagged fusion proteins as reported previously ([8]).
To prepare the unilamellar liposomes, a 50-mM lipid mixture of palmitoyl-2-oleoylphosphatidylcholine (POPC) (#850457, Avanti Polar Lipids, Alabaster, AL, USA):1,2-dioleoyl-phosphatidylserine (DOPS) (#840035, Avanti Polar Lipids) at 65:35 mol% was dried in a glass tube under a gentle stream of nitrogen gas and then exposed to a vacuum overnight. The resultant lipid film was resuspended in dialysis buffer (25 mM HEPES and 100 mM KCl, pH 7.4) by vortexing, followed by an extrusion step with polycarbonate membrane filters having a pore size of 100 nm (#610005, Avanti Polar Lipids). To prepare proteoliposomes, binary T-SNAREs, which were pre-formed by mixing Syn4 and SNAP-23 at room temperature for 60 min, were incubated with 50 mM unilamellar liposomes for 15 min at the same temperature, resulting in a 50:1 lipid/protein molar ratio ([9]).
For the preparation of V-SNARE proteoliposomes, a 10-mM premixed lipid solution [POPC:DOPS:N-(7-nitro-2-1,3-benzoxadiazol-4-yl (NBD))-phosphatidylserine (#810198, Avanti Polar Lipids):[…] (#810150, Avanti Polar Lipids) = 62:35:1.5:1.5 (molar ratio)] was used for the preparation of fluorescent liposomes in the same manner as above. The prepared liposomes were then mixed with VAMP2 for 15 min at room temperature. The liposome/protein mixture was diluted twice to bring the concentration of n-octyl glucoside (O8001, Sigma-Aldrich) below the critical micelle concentration. After overnight dialysis against 1L dialysis buffer at 4°C to remove the detergent, SM-2 bio-beads (#1523920, Bio-Rad Laboratories, Hercules, CA, USA) were added to the sample to remove any remaining n-octyl glucoside. The solution was then centrifuged at 10,000 × g to remove the protein/lipid aggregates, and the final lipid concentrations of both the T- and V-liposomes were adjusted to 1 mM with a lipid-to-protein ratio of 50:1.
A total lipid mixing assay using the T- and V-liposomes was performed as described previously with minor modifications ([8]). […] The fusion was monitored using the dequenching of NBD fluorescence signal (excitation 465 nm/emission 530 nm). After at least 80 min of fusion, the maximum NBD signal was obtained by adding 0.1% Triton X-100™. All the lipid-mixing experiments were performed at 37°C.

SN23-Syn4-Vp2 complex = biological target: T2, SN23-Syn4-Vp2 complex (Rattus norvegicus, UniProt O70377+P63045+Q08850); assay: Co-immunoprecipitation of SNARE complexes in activated RBL-2H3 cells, anti-SNAP-23 blot; format: cell-based; settings: peptides added to the medium after A23187 pretreatment; IP of Vp2, blot anti-SNAP-23 (Figure 4C)
T2 construct: Lysates of RBL-2H3 cells; endogenous in cells; host or cells: RBL-2H3 (ATCC CRL-2256)

[2] = tested on: complexes containing both Syn4 and SN23; assay: as above; format: cell-based, rat; settings: peptides added to the medium after A23187 pretreatment; co-IP, blot anti-SNAP-23 (Figure 4C)
Experimental: Lysates of RBL-2H3 cells (0.5–1 × 10^6 cells), which were obtained by the addition of 1 mL lysis buffer (50 mM Tris–HCl, 150 mM NaCl, 1% Triton X-100™, 1 mM EDTA, pH 7.5) supplemented with a protease inhibitor cocktail (Calbiochem®, Merck Millipore, Billerica, MA, USA), were centrifuged at 13,000 g at 4°C to remove cell debris and precleared with 100 µL protein G Sepharose® (GE Healthcare) for 2 h at 4°C. The precleared lysates were incubated with antibodies against SNARE proteins (Syn4, SNAP-23, VAMP2, and VAMP8) for 2 h at 4°C for binding, and then the antibody–antigen complexes were precipitated by incubation with a protein G slurry overnight with constant shaking. After an extensive washing step with lysis buffer, an immunoblotting analysis was performed for the precipitates. The immunoprecipitated proteins and cell lysates were electrophoresed on 12% sodium dodecyl sulfate-polyacrylamide gel electrophoresis gels and then transferred to nitrocellulose blotting membranes (GE Healthcare). After blocking the membranes in TBST (10 mM Tris–HCl, 150 mM NaCl, and 0.05% Tween® 20, pH 8) containing 0.5% BSA and 5% skim milk for 1 h at room temperature, primary anti-SNAP-23 antibody (1:1,000 dilution) in TBST supplemented with 1% BSA and 0.01% sodium azide was added and incubated at 4°C overnight. […]

T1 sequence (Q08850 whole entry, the tested form may be a part): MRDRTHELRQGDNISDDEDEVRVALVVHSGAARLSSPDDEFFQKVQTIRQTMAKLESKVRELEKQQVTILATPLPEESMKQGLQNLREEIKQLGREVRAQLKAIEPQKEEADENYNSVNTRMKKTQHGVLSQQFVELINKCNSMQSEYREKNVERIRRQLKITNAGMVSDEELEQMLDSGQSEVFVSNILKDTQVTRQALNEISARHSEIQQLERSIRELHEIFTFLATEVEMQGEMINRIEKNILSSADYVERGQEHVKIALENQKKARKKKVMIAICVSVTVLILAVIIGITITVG
T1 sequence (O70377 whole entry, the tested form may be a part): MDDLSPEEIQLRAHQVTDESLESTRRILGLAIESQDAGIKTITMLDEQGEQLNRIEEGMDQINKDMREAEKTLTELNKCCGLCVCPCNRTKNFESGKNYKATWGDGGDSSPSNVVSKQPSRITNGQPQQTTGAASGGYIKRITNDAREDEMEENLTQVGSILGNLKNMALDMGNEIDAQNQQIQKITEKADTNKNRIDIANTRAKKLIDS
T1 sequence (P63045 whole entry, the tested form may be a part): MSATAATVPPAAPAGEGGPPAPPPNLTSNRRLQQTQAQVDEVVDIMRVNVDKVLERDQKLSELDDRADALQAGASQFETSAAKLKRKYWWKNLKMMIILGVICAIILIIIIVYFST
T2 sequence (Q08850 whole entry): as the sequence (Q08850 whole entry, the tested form may be a part) above
T2 sequence (O70377 whole entry): as the sequence (O70377 whole entry, the tested form may be a part) above
T2 sequence (P63045 whole entry): as the sequence (P63045 whole entry, the tested form may be a part) above

Row | Sequence | inhibition of histamine release (RBL-2H3 mast cells) | inhibition of histamine release after A23187 pretreatment (RBL-2H3 mast cells) | inhibition of membrane fusion (lipid mixing) [1] | inhibition of membrane fusion, peptide added after preincubation [1] | inhibition of membrane fusion, peptide added before preincubation [1] | SNARE complex formation in cells (amount of SN23-Syn4-Vp2 complex) (SN23-Syn4-Vp2 complex) | amount of complexes containing both Syn4 and SN23 (binary Syn4-SN23 and ternary complexes) [2]
1 | LQSEVEGVKNIMTQNVE [Vp8N, 17-mer peptide, N-terminal region of VAMP8 SNARE motif] | almost equally inhibited the release of both β-hexosaminidase and histamine | inhibited both histamine and β-hexosaminidase release |  |  |  |  | 
2 | EDEMEENLTQVGSILGN [SC23N, 17-mer peptide, N-terminal region of SNAP-23 SNARE motif SC23] |  |  | inhibited membrane fusion by both the SN23-Syn4-Vp2 and SN23-Syn4-Vp8 complexes | inhibitory activities significantly diminished | inhibited the membrane fusion induced by both SN23-Syn4-Vp2 and SN23-Syn4-Vp8 | reduced | most dramatically reduced
3 | SARHSEIQQLERTIREL [Syn4N, 17-mer peptide, N-terminal region of syntaxin 4 SNARE motif] | almost equally inhibited the release of both β-hexosaminidase and histamine | inhibited both histamine and β-hexosaminidase release | inhibited membrane fusion by both the SN23-Syn4-Vp2 and SN23-Syn4-Vp8 complexes | inhibitory activities significantly diminished | inhibited the membrane fusion induced by both SN23-Syn4-Vp2 and SN23-Syn4-Vp8 | reduced | most dramatically reduced
